Patent US20230023009A1, “HETEROCYCLIC COMPOUNDS AND METHODS OF USE THEREOF” (SPARCBIO LLC, priority 2020, published 2023)
Like-named read-outs stand apart in the source and are kept apart here.

Key:
MIA PaCa-2 = assay: Cell proliferation assay panel (Cell Titer-Glo, 72 hr); format: cell-based
Description: Potency of compounds was determined in cell proliferation assays in a panel of cancer cell lines. Cells were seeded in 384-well plates (Corning, Cat. #3765) at specified densities in 40 μL of culture medium and incubated overnight at 37° C. in a 5% CO2 incubator (culture conditions). With a robotic dispenser, serially diluted test compounds were added in a volume of 20 nL DMSO to wells in the culture plate to achieve the final desired concentrations of test compounds, and the cells were further incubated in culture conditions for 72 hr. The assay was terminated by addition of 25 μL of Cell Titer-Glo reagent (Promega, Madison, Wis.) to each well. Contents were mixed, the plate was incubated for 10 min at room temperature and luminescence was measured. The IC50 value of each test compound was calculated with XLFit curve fitting software. Results are shown in Table 4. ‘+++’ indicates IC50 values≤300 nM, ‘++’ indicates IC50 values between 300 nM-3 μM, and ‘+’ indicates IC50 values≥3 μM.

KRAS G12C protein = KRAS G12C protein (Homo sapiens, UniProt P01116, G12C); assay: Nucleotide exchange assay (Method III, KRAS G12C/Raf-RBD TR-FRET); format: biochemical; settings: SOS1-mediated exchange of GDP for GTP, 18 hr compound incubation
KRAS G12C protein, sequence (P01116 1-188 isoform P01116-2 G12C): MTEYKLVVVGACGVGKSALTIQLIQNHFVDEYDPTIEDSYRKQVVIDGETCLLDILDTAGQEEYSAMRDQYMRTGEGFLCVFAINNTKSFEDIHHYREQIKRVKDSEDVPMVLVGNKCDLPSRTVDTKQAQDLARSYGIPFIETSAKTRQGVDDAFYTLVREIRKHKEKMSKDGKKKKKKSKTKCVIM
Description: Method III. Inhibition of SOS1-mediated exchange of GDP for GTP on the KRAS G12C protein was measured in a biochemical assay that monitors association of KRAS G12C protein with the Ras-binding domain of Raf (Raf-RBD), where the association is coupled to exchange of GDP to GTP on the KRAS G12C protein. The assay was performed at WuXi AppTec (Shanghai, China). Compounds were serially diluted in 3-fold dilutions to 11 concentrations and spotted into the wells of an assay plate in a total volume of 150 nL DMSO per well. A 2× enzyme mix was prepared by diluting GDP-bound, His-tagged KRAS G12C to 25 nM in assay buffer. 10 μL/well of 2× enzyme mix was added to all wells, and the plate was sealed and incubated overnight (18 hr) at 23° C. 4×SOS1/GDP and 4×SOS1/GTP were prepared in assay buffer. 5 μL/well of 4×SOS1/GDP mix was added to negative control wells, 5 μL/well of 4×SOS1/GTP mix was added to the remaining wells, and the plate was further incubated at 23° C. for 1 hr. Finally, FLAG-tagged Raf-RBD is added to the reaction mixture along with a pair of FRET donor- and acceptor-conjugated antibodies specific for the FLAG-tagged Raf-RBD and His-tagged KRAS G12C proteins. A 4×Raf-RBD/Tb-anti-FLAG/D2-anti-His mix was prepared in assay buffer, and 5 μL/well of the mix was added to all wells, followed by incubation at room temperature for 2 hr. The TR-FRET signals, which increase with association of KRAS G12C and Raf-RBD, were measured on a Perkin Elmer Envision 2104 plate reader, and data were analyzed by non-linear regression to obtain IC50 values for inhibition by compounds. Table 2 includes results of the assay of Method III. ‘+++’ indicates IC50 values≤300 nM, ‘++’ indicates IC50 values between 300 nM-3 μM, and ‘+’ indicates IC50 values≥3 μM.

NCI-H358 cells = assay: 3D cell proliferation assay (Cell Titer-Glo 3D, 7 days); format: cell-based; settings: NCI-H358 3D, ultra-low attachment plate
Description: NCI-H358 cells (ATCC® CRL-5807™) were plated in a 384-well Black/Clear Round Bottom Ultra-Low Attachment Microplate (Corning) in medium (RPMI-1640+10% FBS) at a density of 1000 cells in 50 μL per well, then incubated overnight at 37° C. and 5% CO2. Cells were treated with test compounds at 9 concentrations within a specified concentration range (e.g., 0.5 nM-10 μM) for generation of dose response curves. Test compounds were prepared by 1:3 serial dilution in DMSO from a specified starting concentration (e.g., 20 μM, 2 μM or 0.2 μM) and then added to wells of the assay plate in a total volume of 150 nL DMSO. The cells were further incubated at 37° C. and 5% CO2 for 7 days. Cell viability was assessed by adding 40 μL of Cell Titer-Glo® 3D reagent (Cat. No.: G9683, Promega) to each well and reading luminescence after mixing and incubation of the samples. The IC50 value of each test compound was calculated with XLFit curve fitting software.

[1] = system: NCI-H358 subcutaneous xenograft tumors; assay: NCI-H358 mouse xenograft model
Description: NCI-H358 cells were injected subcutaneously (5×10^6 cells in 0.1 mL of PBS) into the right flanks of 6-8-week-old female BALB/c nude mice and allowed to grow until the average tumor size reached 150-200 mm^3. The mice were then stratified into treatment groups of 4-8 animals and treatment initiated on Day 0. Test compound or vehicle (1% Tween 80, 2% HPMC, and 97% water) was administered orally, once daily, for 21 days. Tumor size was measured twice weekly in two dimensions using a caliper, and the volume was expressed in mm^3 using the formula: V=(a×b^2/2) where a and b are the long and short diameters of the tumor, respectively. Tumor Growth Inhibition (TGI) was calculated for each group using the formula: TGI %=(1−Ti/Vi)×100, where Ti is the mean tumor volume of the treatment group on the measurement day, and Vi is the mean tumor volume of the control group on the measurement day. Animal body weight was monitored regularly as an indicator of toxicity. […] Data points represent the group mean, and error bars represent the standard error of the mean (SEM).

SMILES	IC50 (KRAS G12C protein) [nM]	IC50 (NCI-H358 cells; Homo sapiens, NCI-H358, 168 h) [nM]	further results
C=C(F)C(=O)N1CCN(c2nc(OC[C@@H]3CCCN3C)nc3c2COC(c2nc(N)cc4ccccc24)C3)C[C@@H]1CC#N (single isomer, unassigned) [259 (Isomer B)]	≤ 300		IC50 (MIA PaCa-2): ≤ 300 nM
C=CC(=O)N1CCN(c2nc(OC[C@@H]3CCCN3C)nc3c2COC(c2cccc4cccc(Cl)c24)C3)CC1 (single isomer, unassigned) [40 (Isomer A)]	≤ 300		IC50 (NCI-H358 cells): 100 to 2000 nM
C=C(F)C(=O)N1CCN(c2nc(OC[C@H]3CCCN3C)nc3c2COC(c2cccc4cccc(Cl)c24)C3)C[C@@H]1CC#N (single isomer, unassigned) [267 (Isomer A)]	300 to 3000		IC50 (MIA PaCa-2): ≥ 3000 nM
C=C(F)C(=O)N1CCN(c2nc(OC[C@@H]3CCCN3C)nc3c2COC(c2nc(N)cc4ccccc24)C3)C[C@@H]1CC#N (single isomer, unassigned) [259 (Isomer A)]	300 to 3000		IC50 (MIA PaCa-2): ≥ 3000 nM
C=C(F)C(=O)N1CCN(c2nc(OC[C@H]3CCCN3C)nc3c2COC(c2cccc4cccc(Cl)c24)C3)C[C@@H]1CC#N (single isomer, unassigned) [267 (Isomer B)]	≤ 300		IC50 (MIA PaCa-2): ≤ 300 nM
C=C(F)C(=O)N1CCN(c2nc(OC[C@@H]3CC(F)(F)CN3C)nc3c2COC(c2cccc4cccc(Cl)c24)C3)C[C@@H]1CC#N (single isomer, unassigned) [228 (Isomer B)]	≥ 3000		IC50 (NCI-H358 cells): ≥ 2000 nM
C=C(F)C(=O)N1CCN(c2nc(OC[C@@H]3CCCN3C)nc3c2COC(c2cccc4sc(N)nc24)C3)C[C@@H]1CC#N (single isomer, unassigned) [260 (Isomer A)]	≤ 300	100 to 2000	IC50 (MIA PaCa-2; Homo sapiens, MIA PaCa-2, 72 h): 300 to 3000 nM
C=CC(=O)N1CCN(c2nc(OC[C@@H]3CCCN3C)nc3c2COC(c2cccc4cccc(Cl)c24)C3)C[C@@H]1CC#N (single isomer, unassigned) [38 (Isomer B)]	≤ 300	≤ 100	TGI ([1]; 10 mg/kg orally once daily, Day 20 after treatment start): 22.4%; TGI ([1]; 30 mg/kg orally once daily, Day 20 after treatment start (day not restated for comparators)): 26.7%; TGI ([1]; 100 mg/kg orally once daily, Day 20 after treatment start): 50.4%
C=C(Cl)C(=O)N1CCN(c2nc(OC[C@@H]3CCCN3C)nc3c2COC(c2cccc4cccc(Cl)c24)C3)C[C@@H]1CC#N (single isomer, unassigned) [239 (Isomer B)]	≤ 300	≤ 100	IC50 (MIA PaCa-2; Homo sapiens, MIA PaCa-2, 72 h): ≤ 300 nM
C=C(F)C(=O)N1CCN(c2nc(OC[C@@H]3CC(F)(F)CN3C)nc3c2COC(c2cccc4cccc(Cl)c24)C3)C[C@@H]1CC#N (single isomer, unassigned) [228 (Isomer A)]	≤ 300		IC50 (NCI-H358 cells): ≤ 100 nM; IC50 (MIA PaCa-2; Homo sapiens, MIA PaCa-2, 72 h): 300 to 3000 nM
C=CC(=O)N1CCN(c2nc(OC[C@@H]3CCCN3C)nc3c2COC(c2cccc4cccc(Cl)c24)C3)CC1 (single isomer, unassigned) [40 (Isomer B)]	≥ 3000		IC50 (NCI-H358 cells): ≥ 2000 nM
C=C(F)C(=O)N1CCN(c2nc(OCC34CCCN3CCC4)nc3c2COC(c2cccc4cccc(Cl)c24)C3)C[C@@H]1CC#N (single isomer, unassigned) [266 (Isomer B)]	≤ 300	≤ 100	IC50 (MIA PaCa-2): ≤ 300 nM
C=CC(=O)N1CCN(c2nc(OC[C@@H]3CCCN3C)nc3c2CC=C(c2cccc4cccc(Cl)c24)O3)C[C@@H]1CC#N [Compound 181, 2-((S)-1-acryloyl-4-(7-(8-chloronaphthalen-1-yl)-2-(((S)-1-methylpyrrolidin-2-yl)methoxy)-5H-pyrano[2,3-d]pyrimidin-4-yl)piperazin-2-yl)acetonitrile]	≤ 300	≤ 100	
C=C(F)C(=O)N1CCN(c2nc(OCC34CCCN3CCC4)nc3c2COC(c2cccc4cccc(Cl)c24)C3)C[C@@H]1CC#N (single isomer, unassigned) [266 (Isomer A)]	300 to 3000		IC50 (MIA PaCa-2; Homo sapiens, MIA PaCa-2, 72 h): 300 to 3000 nM
C=C(F)C(=O)N1CCN(c2nc(OC[C@@H]3CCCN3C)nc3c2CC=C(c2cccc4cccc(Cl)c24)O3)C[C@@H]1CC#N [Compound 178, 2-((S)-4-(7-(8-chloronaphthalen-1-yl)-2-(((S)-1-methylpyrrolidin-2-yl)methoxy)-5H-pyrano[2,3-d]pyrimidin-4-yl)-1-(2-fluoroacryloyl)piperazin-2-yl)acetonitrile]	≤ 300	100 to 2000	
C=C(F)C(=O)N1CCN(c2nc(OC[C@@H]3CCCN3C)nc3c2OCC(c2cccc4cccc(Cl)c24)O3)C[C@@H]1CC#N (single isomer, unassigned) [64 (Isomer B)]	300 to 3000		
C=C(F)C(=O)N1CCN(c2nc(OC[C@@H]3CCCN3C)nc3c2COC(c2cccc4cccc(Cl)c24)C3)C[C@H]1C (single isomer, unassigned) [42 (Isomer B)]	≥ 3000		
C=C(F)C(=O)N1CCN(c2nc(OC[C@@H]3CCCN3C)nc3c2COC(c2cccc4cccc(Cl)c24)C3(C)C)C[C@@H]1CC#N (single isomer, unassigned) [258 (Isomer B)]	≤ 300	≤ 100	IC50 (MIA PaCa-2; Homo sapiens, MIA PaCa-2, 72 h): ≤ 300 nM
C=C(F)C(=O)N1CCN(c2nc(Nc3cnn(C)c3)nc3c2COC(c2cccc4cccc(Cl)c24)C3)C[C@@H]1CC#N (single isomer, unassigned) [233 (Isomer B)]	≥ 3000		
C=C(F)C(=O)N1CCN(c2nc(NCCC(=O)N(C)C)nc3c2COC(c2cccc4cccc(Cl)c24)C3)C[C@@H]1CC#N (single isomer, unassigned) [232 (Isomer B)]	≥ 3000		
C=C(F)C(=O)N1CCN(c2nc(NC3CCN(S(C)(=O)=O)CC3)nc3c2COC(c2cccc4cccc(Cl)c24)C3)C[C@@H]1CC#N (single isomer, unassigned) [231 (Isomer B)]	≥ 3000		
C=C(F)C(=O)N1CCN(c2nc(NC3CCN(S(C)(=O)=O)CC3)nc3c2COC(c2cccc4cccc(Cl)c24)C3)C[C@@H]1CC#N (single isomer, unassigned) [231 (Isomer A)]	≥ 3000		
C=C(F)C(=O)N1CCN(c2nc(OC[C@@H]3CCCN3C)nc3c2CO[C@H](c2cccc4cccc(Cl)c24)C3)C[C@@H]1CC#N (single isomer, unassigned) [43 (Isomer A)]	≥ 3000	≥ 2000	
C=C(F)C(=O)N1C[C@H](C)N(c2nc(OC[C@@H]3CCCN3C)nc3c2COC(c2cccc4cccc(Cl)c24)C3)C[C@H]1C (single isomer, unassigned) [235 (Isomer A)]	≥ 3000		
C=C(F)C(=O)N1CCN(c2nc(OC[C@@H]3CCCN3C)nc3c2COC(c2cccc4cccc(Cl)c24)C3)[C@@H](C)C1 (single isomer, unassigned) [44 (Isomer B)]	300 to 3000		
